Target: T1, hSCN9A (Homo sapiens, UniProt Q15858)
T1 construct: expressed in transfected cells
Assay: Whole-cell patch-clamp electrophysiology (conventional or PatchXpress), HEK cells expressing hSCN9A, estimated IC-50
Assay type: cell-based
Details: estimated IC-50, HEK cells expressing hSCN9A; class symbols or bounds; read-out: SCN9A EIC-50
Method: Human Embryonic Kidney (HEK) cells were transfected with hSCN3A or hSCN9A constructs using lipofectamine reagent (Invitrogen), using standard techniques. Cells stably expressing the hSCN3A or hSCN9A constructs were identified by their resistance to G-418 (400 μg/ml). Clones were screened for expression using the whole-cell voltage-clamp technique. HEK cells stably transfected with hSCN3A or hSCN9A were maintained in DMEM medium supplemented with 10% heat-inactivated fetal bovine serum and 400 μg/ml G418 sulfate in an incubator at 37° C. with a humidified atmosphere of 10% CO2. For HTS, cells were harvested from flasks by trypsinization and replated in an appropriate multi-well plate (typically 96 or 384 wells/plate) such that confluence would be achieved within 24 hours of plating. For electrophysiological studies, cells were removed from the culture flask by brief trypsinization and replated at low density onto glass cover slips. Cells were typically used for electrophysiological experiments within 24 to 72 h after plating. Cover slips containing HEK cells expressing hSCN3A or hSCN9A were placed in a bath on the stage of an inverted microscope and perfused (approximately 1 ml/min) with extracellular solution of the following composition: 138 mM NaCl, 2 mM CaCl2, 5.4 mM KCl, 1 mM MgCl2, 10 mM glucose, and 10 mM HEPES, pH 7.4, with NaOH. […] All recordings were made at room temperature (22-24° C.) using AXOPATCH 200B amplifiers and PCLAMP software (Axon Instruments, Burlingame, Calif.) or PatchXpress 7000 hardware and associated software (Axon Instruments, Burlingame, Calif.). hSCN3A or hSCN9A currents in HEK cells were measured using the whole-cell configuration of the patch-clamp technique (Hamill et al., 1981). […] As a result, voltage errors were negligible and no correction was applied. Current records were acquired at 20 to 50 KHz and filtered at 5 to 10 KHz. HEK cells stably transfected with hSCN3A or hSCN9A were viewed under Hoffman contrast optics and placed in front of an array of flow pipes emitting either control or compound-containing extracellular solutions. All compounds were dissolved in dimethyl sulfoxide to make 10 mM stock solutions, which were then diluted into extracellular solution to attain the final concentrations desired. […] The voltage-dependence of inactivation was determined by applying a series of depolarizing prepulses (8 sec long in 10 mV increments) from a negative holding potential. The voltage was then immediately stepped to 0 mV to assess the magnitude of the sodium current. Currents elicited at 0 mV were plotted as a function of prepulse potential to allow estimation of the voltage midpoint of inactivation (V1/2). Cells were then voltage clamped at the empirically determined V1/2. Compounds were tested for their ability to inhibit hSCN3A or hSCN9A sodium channels by activating the channel with a 20 msec voltage step to 0 mV following an 8 second conditioning prepulse to the empirically determined V1-2 (Table B). Compound effect (% inhibition) was determined by difference in current amplitude before and after application of test compounds. […] In some cases electrophysiological assays were conducted with PatchXpress 7000 hardware and associated software (Molecular Devices Corp) (Table B). All assay buffers and solutions were identical to those used in conventional whole-cell voltage clamp experiments described above. hSCN3A or hSCN9A containing cells were grown as above to 50%-80% confluency and harvested by trypsinization. Trypsinized cells were washed and resuspended in extracellular buffer at a concentration of 1×10^6 cells/ml. The onboard liquid handling facility of the PatchXpress was used for dispensing cells and application of test compounds. Determination of the voltage midpoint of inactivation was as described for conventional whole-cell recordings. Cells were then voltage-clamped to the empirically determined V1/2 and current was activated by a 20 msec voltage step to 0 mV.

T1 sequence (Q15858 whole entry): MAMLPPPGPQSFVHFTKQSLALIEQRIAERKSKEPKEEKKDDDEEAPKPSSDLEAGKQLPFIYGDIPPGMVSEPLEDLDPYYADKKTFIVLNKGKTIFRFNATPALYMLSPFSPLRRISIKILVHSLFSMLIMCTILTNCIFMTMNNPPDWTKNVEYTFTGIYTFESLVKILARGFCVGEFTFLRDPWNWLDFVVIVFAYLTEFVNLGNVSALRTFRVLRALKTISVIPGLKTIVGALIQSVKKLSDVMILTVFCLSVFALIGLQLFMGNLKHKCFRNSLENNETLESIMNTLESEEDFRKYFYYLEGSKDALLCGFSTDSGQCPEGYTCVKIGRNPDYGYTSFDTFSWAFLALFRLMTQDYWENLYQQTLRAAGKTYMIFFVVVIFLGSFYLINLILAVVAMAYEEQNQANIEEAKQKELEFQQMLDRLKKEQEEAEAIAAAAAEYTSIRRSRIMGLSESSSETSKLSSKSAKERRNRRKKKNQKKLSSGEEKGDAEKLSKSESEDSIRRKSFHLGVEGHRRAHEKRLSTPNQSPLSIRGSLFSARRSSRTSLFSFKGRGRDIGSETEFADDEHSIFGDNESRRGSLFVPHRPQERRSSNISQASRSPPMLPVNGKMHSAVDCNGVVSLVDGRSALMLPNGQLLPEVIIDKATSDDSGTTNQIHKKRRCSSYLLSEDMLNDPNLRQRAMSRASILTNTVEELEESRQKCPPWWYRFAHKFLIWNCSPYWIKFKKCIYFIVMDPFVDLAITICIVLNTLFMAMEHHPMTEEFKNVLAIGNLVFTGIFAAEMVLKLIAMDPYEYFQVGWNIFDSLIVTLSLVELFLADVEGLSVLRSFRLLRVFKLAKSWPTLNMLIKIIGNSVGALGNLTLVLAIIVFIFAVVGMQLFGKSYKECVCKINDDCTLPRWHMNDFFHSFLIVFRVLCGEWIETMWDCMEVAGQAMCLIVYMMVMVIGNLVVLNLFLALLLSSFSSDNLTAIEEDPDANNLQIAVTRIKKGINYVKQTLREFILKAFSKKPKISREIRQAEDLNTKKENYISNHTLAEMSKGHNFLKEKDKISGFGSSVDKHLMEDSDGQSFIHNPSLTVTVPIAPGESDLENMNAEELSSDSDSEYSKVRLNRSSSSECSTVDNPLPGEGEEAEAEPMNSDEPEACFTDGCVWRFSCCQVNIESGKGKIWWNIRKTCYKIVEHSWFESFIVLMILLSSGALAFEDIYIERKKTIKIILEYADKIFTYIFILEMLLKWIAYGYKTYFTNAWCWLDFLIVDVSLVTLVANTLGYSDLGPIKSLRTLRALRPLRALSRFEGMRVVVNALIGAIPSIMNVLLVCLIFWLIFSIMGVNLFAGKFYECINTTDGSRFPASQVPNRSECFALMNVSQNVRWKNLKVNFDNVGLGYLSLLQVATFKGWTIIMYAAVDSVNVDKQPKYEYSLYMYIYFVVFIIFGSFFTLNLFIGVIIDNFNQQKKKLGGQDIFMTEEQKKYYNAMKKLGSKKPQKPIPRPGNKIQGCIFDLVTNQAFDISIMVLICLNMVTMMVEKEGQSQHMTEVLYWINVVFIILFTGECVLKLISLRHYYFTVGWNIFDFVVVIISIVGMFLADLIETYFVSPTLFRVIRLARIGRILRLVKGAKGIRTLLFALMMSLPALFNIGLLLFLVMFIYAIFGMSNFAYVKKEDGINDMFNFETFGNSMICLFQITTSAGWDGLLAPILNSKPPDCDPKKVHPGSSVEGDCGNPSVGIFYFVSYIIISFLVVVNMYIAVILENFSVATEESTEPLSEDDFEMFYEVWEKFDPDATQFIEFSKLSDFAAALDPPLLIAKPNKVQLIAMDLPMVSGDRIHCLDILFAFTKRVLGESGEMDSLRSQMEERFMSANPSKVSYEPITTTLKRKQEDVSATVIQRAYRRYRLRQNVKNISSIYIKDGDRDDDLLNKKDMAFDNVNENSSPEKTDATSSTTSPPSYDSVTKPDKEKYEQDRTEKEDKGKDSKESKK

| SMILES | IC50 [nM] |
| --- | --- |
| Cc1ccc(Cc2cc(Nc3ccc(S(=O)(=O)Nc4nccs4)c(F)c3)n(C(C)(C)C)n2)cc1 [Compound 157, 4-(1-tert-butyl-3-(4-methylbenzyl)-1H-pyrazol-5-ylamino)-2-fluoro-N-(thiazol-2-yl)benzenesulfonamide] | < 2000 |
| Cc1ccc(Cc2cc(Nc3ccc(S(=O)(=O)Nc4nccs4)cc3F)n(C(C)(C)C)n2)cc1 [Compound 158, 4-(1-tert-butyl-3-(4-methylbenzyl)-1H-pyrazol-5-ylamino)-3-fluoro-N-(thiazol-2-yl)benzenesulfonamide] | < 2000 |
| Cc1ccc(Cc2cc(Nc3ccc(S(=O)(=O)Nc4nccs4)c(F)c3)n(C)n2)cc1 [Compound 159, 2-fluoro-4-(1-methyl-3-(4-methylbenzyl)-1H-pyrazol-5-ylamino)-N-(thiazol-2-yl)benzenesulfonamide] | < 2000 |
| Cc1ccc(Cc2cc(Nc3ccc(S(=O)(=O)Nc4nccs4)cc3F)n(C)n2)cc1 [Compound 160, 3-fluoro-4-(1-methyl-3-(4-methylbenzyl)-1H-pyrazol-5-ylamino)-N-(thiazol-2-yl)benzenesulfonamide] | < 2000 |
| Cc1cc(Nc2ccc(S(=O)(=O)Nc3ncc(Cl)s3)cc2)n(-c2ccccc2)n1 [Compound 163, N-(5-chlorothiazol-2-yl)-4-(3-methyl-1-phenyl-1H-pyrazol-5-ylamino)benzenesulfonamide] | 2000 to 10000 |
| CC(C)(C)n1nc(Cc2cccc(Cl)c2)cc1Nc1ccc(S(=O)(=O)Nc2nccs2)c(F)c1 [Compound 164, 4-(1-tert-butyl-3-(3-chlorobenzyl)-1H-pyrazol-5-ylamino)-2-fluoro-N-(thiazol-2-yl)benzenesulfonamide] | < 2000 |
| Cc1ccc(Cc2cc(Nc3ccc(S(=O)(=O)Nc4nccs4)c(F)c3)[nH]n2)cc1 [Compound 165, 2-fluoro-4-(3-(4-methylbenzyl)-1H-pyrazol-5-ylamino)-N-(thiazol-2-yl)benzenesulfonamide] | < 2000 |
| CC(C)(C)n1nc(Cc2ccc(Cl)c(F)c2)cc1Nc1ccc(S(=O)(=O)Nc2nccs2)c(F)c1 [Compound 166, 4-(1-tert-butyl-3-(4-chloro-3-fluorobenzyl)-1H-pyrazol-5-ylamino)-2-fluoro-N-(thiazol-2-yl)benzenesulfonamide] | < 2000 |
| Cc1ccc(Cc2cc(Nc3ccc(S(=O)(=O)Nc4nccs4)cc3F)[nH]n2)cc1 [Compound 167, 3-fluoro-4-(3-(4-methylbenzyl)-1H-pyrazol-5-ylamino)-N-(thiazol-2-yl)benzenesulfonamide] | < 2000 |
| O=S(=O)(Nc1nccs1)c1ccc(Nc2ccnn2-c2ccccc2)cc1F [Compound 168, 2-fluoro-4-(1-phenyl-1H-pyrazol-5-ylamino)-N-(thiazol-2-yl)benzenesulfonamide] | < 2000 |
| Cc1cc(Nc2ccc(S(=O)(=O)Nc3nccs3)c(F)c2)n(C2CCCC2)n1 [Compound 169, 4-(1-cyclopentyl-3-methyl-1H-pyrazol-5-ylamino)-2-fluoro-N-(thiazol-2-yl)benzenesulfonamide] | < 2000 |
| Cc1cc(Nc2ccc(S(=O)(=O)Nc3nccs3)c(F)c2)n(-c2ccc(C(F)(F)F)cc2)n1 [Compound 170, 2-fluoro-4-(3-methyl-1-(4-(trifluoromethyl)phenyl)-1H-pyrazol-5-ylamino)-N-(thiazol-2-yl)benzenesulfonamide] | < 2000 |
| O=S(=O)(Nc1nccs1)c1ccc(Nc2cnn(C(c3ccccc3)c3ccccc3)c2)cc1F [Compound 171, 4-(1-benzhydryl-1H-pyrazol-4-ylamino)-2-fluoro-N-(thiazol-2-yl)benzenesulfonamide] | < 2000 |
| O=S(=O)(Nc1nccs1)c1ccc(Nc2c3c(nn2-c2ccccc2)CCC3)cc1F [Compound 174, 2-fluoro-4-(2-phenyl-2,4,5,6-tetrahydrocyclopenta[c]pyrazol-3-ylamino)-N-(thiazol-2-yl)benzenesulfonamide] | < 2000 |
| Cc1cc(Nc2ccc(S(=O)(=O)Nc3nccs3)c(F)c2)n(C(C)C2CC2)n1 (stereo not drawn) [Compound 175, 4-(1-(1-cyclopropylethyl)-3-methyl-1H-pyrazol-5-ylamino)-2-fluoro-N-(thiazol-2-yl)benzenesulfonamide] | < 2000 |
| Cc1cccc(-n2nc(C)cc2Nc2ccc(S(=O)(=O)Nc3nccs3)c(F)c2)c1 [Compound 176, 2-fluoro-4-(3-methyl-1-m-tolyl-1H-pyrazol-5-ylamino)-N-(thiazol-2-yl)benzenesulfonamide] | < 2000 |
| Cc1cc(Nc2ccc(S(=O)(=O)Nc3nccs3)c(F)c2)n(-c2cccc(F)c2)n1 [Compound 177, 2-fluoro-4-(1-(3-fluorophenyl)-3-methyl-1H-pyrazol-5-ylamino)-N-(thiazol-2-yl)benzenesulfonamide] | < 2000 |
| Cc1cc(Nc2ccc(S(=O)(=O)Nc3nccs3)c(F)c2)n(-c2ccc(F)cc2)n1 [Compound 178, 2-fluoro-4-(1-(4-fluorophenyl)-3-methyl-1H-pyrazol-5-ylamino)-N-(thiazol-2-yl)benzenesulfonamide] | < 2000 |
| Cc1cc(Nc2ccc(S(=O)(=O)Nc3nccs3)c(F)c2)n(-c2ccccc2C(F)(F)F)n1 [Compound 179, 2-fluoro-4-(3-methyl-1-(2-(trifluoromethyl)phenyl)-1H-pyrazol-5-ylamino)-N-(thiazol-2-yl)benzenesulfonamide] | < 2000 |
| N#Cc1cn(-c2ccccc2)nc1Nc1ccc(S(=O)(=O)Nc2nccs2)c(F)c1 [Compound 180, 4-(4-cyano-1-phenyl-1H-pyrazol-3-ylamino)-2-fluoro-N-(thiazol-2-yl)benzenesulfonamide] | 2000 to 10000 |
| Cc1cc(Nc2ccc(S(=O)(=O)Nc3nccs3)c(F)c2)n(-c2cccc(C(F)(F)F)c2)n1 [Compound 181, 2-fluoro-4-(3-methyl-1-(3-(trifluoromethyl)phenyl)-1H-pyrazol-5-ylamino)-N-(thiazol-2-yl)benzenesulfonamide] | < 2000 |
| Cc1cc(Nc2ccc(S(=O)(=O)Nc3nccs3)c(F)c2)n(-c2cc(F)ccc2C)n1 [Compound 186, 2-fluoro-4-(1-(5-fluoro-2-methylphenyl)-3-methyl-1H-pyrazol-5-ylamino)-N-(thiazol-2-yl)benzenesulfonamide] | < 2000 |
| Cc1cc(Nc2ccc(S(=O)(=O)Nc3nccs3)c(F)c2)n(-c2ccc(F)cc2C(F)(F)F)n1 [Compound 187, 2-fluoro-4-(1-(4-fluoro-2-(trifluoromethyl)phenyl)-3-methyl-1H-pyrazol-5-ylamino)-N-(thiazol-2-yl)benzenesulfonamide] | < 2000 |
| Cc1cc(Nc2ccc(S(=O)(=O)Nc3nccs3)c(F)c2)n(-c2c(Cl)cccc2Cl)n1 [Compound 189, 4-(1-(2,6-dichlorophenyl)-3-methyl-1H-pyrazol-5-ylamino)-2-fluoro-N-(thiazol-2-yl)benzenesulfonamide] | < 2000 |
| Cc1cc(Nc2ccc(S(=O)(=O)Nc3nccs3)c(F)c2)n(-c2c(F)cccc2F)n1 [Compound 190, 4-(1-(2,6-difluorophenyl)-3-methyl-1H-pyrazol-5-ylamino)-2-fluoro-N-(thiazol-2-yl)benzenesulfonamide] | < 2000 |
| Cc1cc(Nc2ccc(S(=O)(=O)Nc3nccs3)c(F)c2)n(C(C)(C)C)n1 [Compound 192, 4-(1-tert-butyl-3-methyl-1H-pyrazol-5-ylamino)-2-fluoro-N-(thiazol-2-yl)benzenesulfonamide] | 2000 to 10000 |
| CC(C)(C)n1nc(Cc2cccc(Cl)c2)cc1Nc1ccc(S(=O)(=O)Nc2nccs2)cc1 [Compound 194, 4-(1-tert-butyl-3-(3-chlorobenzyl)-1H-pyrazol-5-ylamino)-N-(thiazol-2-yl)benzenesulfonamide] | 2000 to 10000 |
